Experimental data: the supplement of paper PMC10307832

Tests used:
Assay in all cases: relative viability (nuclei count vs DMSO), 5 days (fraction); higher = more cells survive
[1] = compound: O=C(c1cc(Cc2n[nH]c(=O)c3ccccc23)ccc1F)N1CCN(C(=O)C2CC2)CC1 [Olaparib] + Cc1nc(NC(=O)N2CCC[C@H]2C(N)=O)sc1-c1ccnc(C(C)(C)C(F)(F)F)c1 [Alpelisib] (partner 2 µM)
Outline: (§1)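 Lung cancer cell lines in 1536-well plates got either a single drug or a fixed anchor-drug dose together with five library-drug doses (not always all listed) in √10 steps, by pin tool, on the day after seeding. Nuclei were counted after 5 days, and relative viability is the treated-to-vehicle ratio of nuclei counts. Values are medians of duplicate plates.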

[2] = compound: C[C@@H](Oc1cc(-c2cnn(C3CCNCC3)c2)cnc1N)c1c(Cl)ccc(F)c1Cl [Crizotinib] + COc1cc2c(Oc3ccc(NC(=O)C4(C(=O)Nc5ccc(F)cc5)CC4)cc3F)ccnc2cc1OCCCN1CCOCC1 [Foretinib] (partner 0.25 µM)
Outline: as §1

[3] = compound: CC(C)C[C@H](NC(=O)[C@H](CCc1ccccc1)NC(=O)CN1CCOCC1)C(=O)N[C@@H](Cc1ccccc1)C(=O)N[C@@H](CC(C)C)C(=O)[C@@]1(C)CO1 [Carfilzomib] + COc1cccc2cc(-c3nc([C@H]4CC[C@H](C(=O)O)CC4)n4ncnc(N)c34)[nH]c12 [OSI-027] (partner 0.5 µM)
Outline: as §1

[4] = compound: O=C(c1cc(Cc2n[nH]c(=O)c3ccccc23)ccc1F)N1CCN(C(=O)C2CC2)CC1 [Olaparib] + Nc1ncn([C@H]2C[C@H](O)[C@@H](CO)O2)c(=O)n1 [Decitabine] (partner 2 µM)
Outline: as §1

Row | Cell Line | relative viability ([1]; first compound 0.08 µM) | relative viability ([1]; first compound 0.253 µM) | relative viability ([1]; first compound 2.53 µM) | relative viability ([1]; first compound 8 µM) | relative viability ([2]; first compound 0.01 µM) | relative viability ([2]; first compound 0.03162 µM) | relative viability ([2]; first compound 0.1 µM) | relative viability ([2]; first compound 0.3162 µM) | relative viability ([2]; first compound 1 µM) | relative viability ([3]; first compound 0.001 µM) | relative viability ([3]; first compound 0.003162 µM) | relative viability ([3]; first compound 0.01 µM) | relative viability ([3]; first compound 0.03162 µM) | relative viability ([3]; first compound 0.1 µM) | relative viability ([4]; first compound 0.08 µM) | relative viability ([4]; first compound 0.253 µM) | relative viability ([4]; first compound 2.53 µM) | relative viability ([4]; first compound 8 µM)
1 | NCI-H322M | 0.893 | 0.789 | 0.911 | 0.709 | 0.852 | 1.04 | 0.947 | 1.09 | 0.889 | 0.592 | 0.624 | 0.606 | 0.462 | 0.332 | 0.685 | 0.592 | 0.708 | 0.596
2 | NCI-H358 | 0.862 | 0.808 | 0.868 | 0.773 | 0.609 | 0.835 | 0.649 | 0.624 | 0.713 | 0.638 | 0.834 | 0.888 | 0.0702 | 0.0685 | 0.148 | 0.157 | 0.23 | 0.138
3 | NCI-H441 |  | 0.541 | 0.568 | 0.487 |  | 0.958 | 0.931 |  | 0.825 | 0.649 | 0.588 | 0.295 | 0.153 | 0.16 | 0.257 | 0.197 | 0.243 | 0.188
4 | NCI-H460 | 0.62 | 0.38 | 0.238 | 0.173 | 0.801 | 1.05 | 0.996 | 1.02 | 1.07 | 0.647 | 0.678 | 0.697 | 0.287 | 0.022 | 0.114 | 0.128 | 0.0907 | 0.062
5 | NCI-H520 | 1.05 | 0.843 | 0.814 | 0.529 | 0.757 | 0.827 | 0.804 |  | 0.538 | 0.19 | 0.259 | 0.22 | 0.221 | 0.191 | 0.467 | 0.318 | 0.365 | 0.261
6 | NCI-H596 | 0.532 | 0.452 | 0.551 | 0.41 | 0.854 | 0.898 | 0.85 | 1.11 | 0.835 | 0.657 | 1 | 0.684 | 0.372 | 0.149 | 0.915 | 0.9 | 0.732 | 0.632
7 | NCI-H647 | 1.41 | 1.05 | 1.29 | 0.954 | 1.2 | 1.24 | 1.19 | 1.18 | 1.22 | 0.562 | 0.747 | 0.583 | 0.0357 | 0.0226 | 0.293 | 0.253 | 0.227 | 0.152
8 | NCI-H650 | 1.33 | 1.17 | 1.04 | 0.84 | 1.03 | 0.998 | 1.03 | 0.977 | 0.99 |  | 0.612 | 0.54 | 0.439 | 0.221 | 0.266 | 0.293 | 0.241 | 0.281
9 | NCI-H661 | 0.87 | 0.511 | 0.618 | 0.455 | 0.941 |  | 1.01 | 1.08 | 0.98 | 0.698 | 0.705 | 0.722 | 0.675 | 0.394 | 0.454 | 0.434 | 0.4 | 0.382
10 | NCI-H727 | 0.607 | 0.527 | 0.597 | 0.332 |  | 1.24 | 0.957 |  | 1.22 | 0.618 | 0.646 | 0.734 | 0.463 | 0.242 | 0.908 | 0.858 | 0.893 | 0.805
11 | NCI-H838 | 1.09 | 0.933 | 0.978 | 0.944 | 0.961 | 1.04 | 1.01 | 0.994 | 1.02 | 0.367 | 0.45 | 0.431 | 0.388 | 0.131 | 0.416 | 0.32 | 0.354 | 0.323
12 | NCI-H1355 | 0.804 | 0.716 | 0.825 | 0.798 | 0.935 | 0.81 | 0.922 | 0.916 | 0.959 | 0.411 | 0.495 | 0.493 | 0.311 | 0.163 | 0.37 | 0.345 | 0.304 | 0.31
13 | NCI-H1395 | 1 | 0.748 | 0.662 | 0.504 | 0.827 | 0.937 |  | 0.941 | 0.959 | 0.526 | 0.734 | 0.642 | 0.5 | 0.309 | 0.64 | 0.654 | 0.504 | 0.494
14 | NCI-H1437 | 0.987 | 0.987 | 0.929 | 0.764 | 1.14 | 1.22 | 1.25 | 1.27 | 1.32 | 0.876 | 0.952 | 0.841 | 0.889 | 0.241 | 0.458 | 0.391 | 0.434 | 0.386
15 | NCI-H1651 | 0.927 | 0.869 | 0.714 | 0.356 | 0.615 | 0.725 | 0.843 | 0.864 | 0.902 | 0.733 | 0.743 | 0.588 | 0.127 | 0.0922 | 0.356 | 0.277 | 0.224 | 0.168
